{
  "source": "patent US20090318627A1",
  "about": "“SOLID PHASE SYNTHESIS OF ACRIDINIUM DERIVATIVES” (Siemens Healthcare Diagnostics Inc., priority 2006, published 2009)",
  "origin": "cited, not measured here",
  "conditions": "hydrolysis of ester linkage between acridinium ring and phenol",
  "data": [
    {"compound": "9-carboxyphenyl-N-methylacridinium bromide", "values": [
      {"measurement": "hydrolytic stability of the acridinium ester linkage, in words", "value": "quite unstable"}
    ]},
    {"compound": "Cc1cc(C(=O)ON2C(=O)CCC2=O)cc(C)c1OC(=O)c1c2ccccc2[n+](C)c2ccccc12", "note": "[DMAE-NHS, 2′,6′-dimethyl-4′-(N-succinimidyloxycarbonyl)phenyl-10-methylacridinium-9-carboxylate]", "values": [
      {"measurement": "hydrolytic stability of the acridinium ester linkage, in words", "value": "significantly more resistant to hydrolysis"}
    ]}
  ]
}
